No end group written: not given here.
Key:
Format in all cases: in vivo, chick
chicks [1] = assay: Memory enhancement on weak training (10% methylanthranilate), passive avoidance task; settings: for effect of differing doses on weak training (percent avoidance): 30 mins before training, RER 0.2, 1.0, 2.0 μg/hemisphere, Ac-RER 4.0, 6.0 μg/hemisphere
Method: (§1) Commercially obtained Ross Chunky eggs were incubated and hatched in brooders and held until 16±6 hours old. Chicks were placed in pairs in small aluminium pens. Following an equilibration period of an hour, the chicks were pretrained and trained essentially as described by Lossner and Rose (J. Neurochem. 41, 1357-1363 (1983), the contents of which are incorporated herein by reference). Pretraining involved three 10 s presentations of a small (2 mm diameter) white bead, at approximately 5 minute intervals. […] Two training techniques were used: “strong” and “weak” training. In both, 5 to 10 minutes after the last pre-training trial, chicks were trained by a 10 s presentation of a 4 mm diameter chrome bead, which had been dipped in the bitter-tasting methylanthranilate. Control chicks pecked at a water-coated or dry bead. In the “strong” version of the task, 100% methylanthranilate was used. In the “weak” version, 10% methylanthranilate was used. Chicks spontaneously pecked at the training or control beads within 20 s. Chicks that peck at the bitter bead evinced a disgust reaction and would not normally peck at a similar, but dry bead for some hours subsequently. At various times following training chicks were tested, by offering them a dry 4 mm diameter chrome bead, followed 10 minutes later by a small (2 mm diameter) white bead, each for 20 to 30 s. Animals were tested by an experimenter blind as to which treatment each chick had received. Chicks are considered to remember the task if they avoid the chrome bead at test but peck at the white bead (discriminate), and to have forgotten it if they peck at both beads. Recall is calculated as a percent avoidance score (percentage of chicks which avoid the chrome bead) and as a discrimination score (percentage of chicks which avoid the chrome but peck at the white bead). […] Each chick was trained and tested only once and differences between groups tested for statistical significance by g-test described by Sokal and Rohlf (Biometry: the Principles and Practice of Statistics in Biological Research (2nd edition), W H Freeman, New York (1981)), the contents of which are incorporated herein by reference. The validity of this particular training task used to assess memory formation is extensively discussed by Andrew (Neural and Behavioural Plasticity: the Use of the Domestic Chick as a Model, Oxford University Press, Oxford, UK (1991), the contents of which are incorporated herein by reference.
(§2) Thus the learning experience is not committed to long-term memory. Agents that are memory enhancers can thus be tested. A memory enhancing agent, administered to a chick trained on the weak learning task, produces an increase in retention—increased avoidance of the chrome bead—at 24 hours. That is, such memory enhancers help convert weak to strong learning by enabling the transition from shorter to longer-term memory.
(§3) Bilateral intracranial injections ([…]) of either saline, or solutions in saline of different peptides (0.5 to 5 μg/hemisphere) homologous to different regions of the external domain of human APP were injected intracerebrally into a specific brain region, known to be required for memory formation (the intermediate hyperstriatum ventrale) at different time-points pre- or post-training using a […] fitted with a plastic sleeve to allow a penetration of 3 mm. After completion of the injection, the needle was kept in place for 5 s. Correct placement was ensured by using a specially designed headholder described by Davis et al (Physiol. Behav. 22, 177-184 (1979), the contents of which are incorporated herein by reference) and was routinely visually monitored postmortem. Peptides or other substances were administered at various times either before or after the training protocol. Chicks were tested at different time points post-training as described above. […]

chicks [2] = assay: β-amyloid 12-28 induced amnesia, passive avoidance task, strong training
Method: as §1, §2
Bilateral intracranial injections ([…]) of either saline, or solutions in saline of different peptides (0.5 to 5 μg/hemisphere) homologous to different regions of the external domain of human APP were injected intracerebrally into a specific brain region, known to be required for memory formation (the intermediate hyperstriatum ventrale) at different time-points pre- or post-training using a […] fitted with a plastic sleeve to allow a penetration of 3 mm. After completion of the injection, the needle was kept in place for 5 s. Correct placement was ensured by using a specially designed headholder described by Davis et al (Physiol. Behav. 22, 177-184 (1979), the contents of which are incorporated herein by reference) and was routinely visually monitored postmortem. Peptides or other substances were administered at various times either before or after the training protocol. Chicks were tested at different time points post-training as described above.

chicks [3] = assay: APP-antisense induced amnesia, passive avoidance task, strong training; settings: for effect on APP-antisense induced amnesia (percent avoidance): FIG. 5
Method: Commercially obtained Ross Chunky eggs were incubated and hatched in brooders and held until 16±6 hours old. Chicks were placed in pairs in small aluminium pens. Following an equilibration period of an hour, the chicks were pretrained and trained essentially as described by Lossner and Rose (J. Neurochem. 41, 1357-1363 (1983), the contents of which are incorporated herein by reference). Pretraining involved three 10 s presentations of a small (2 mm diameter) white bead, at approximately 5 minute intervals. […] Two training techniques were used: “strong” and “weak” training. In both, 5 to 10 minutes after the last pre-training trial, chicks were trained by a 10 s presentation of a 4 mm diameter chrome bead, which had been dipped in the bitter-tasting methylanthranilate. Control chicks pecked at a water-coated or dry bead. In the “strong” version of the task, 100% methylanthranilate was used. In the “weak” version, 10% methylanthranilate was used. Chicks spontaneously pecked at the training or control beads within 20 s. Chicks that peck at the bitter bead evinced a disgust reaction and would not normally peck at a similar, but dry bead for some hours subsequently. At various times following training chicks were tested, by offering them a dry 4 mm diameter chrome bead, followed 10 minutes later by a small (2 mm diameter) white bead, each for 20 to 30 s. Animals were tested by an experimenter blind as to which treatment each chick had received. Chicks are considered to remember the task if they avoid the chrome bead at test but peck at the white bead (discriminate), and to have forgotten it if they peck at both beads. Recall is calculated as a percent avoidance score (percentage of chicks which avoid the chrome bead) and as a discrimination score (percentage of chicks which avoid the chrome but peck at the white bead). […]
as §3, with “After completion of the injection, the needle was kept in place for 5 s.” left out, “postmortem.” for “postmortem. Peptides or other substances were administered at various times either before or after the training protocol. Chicks were tested at different time points post-training as described above.”

chicks [4] = assay: anti-APP (mb22C11) induced amnesia, passive avoidance task; settings: FIG. 4; mb22C11 30 minutes pretraining, peptide 5 minutes pretraining; memory tested 24 hours posttraining
Method: Commercially obtained Ross Chunky eggs were incubated and hatched in brooders and held until 16±6 hours old. Chicks were placed in pairs in small aluminium pens. Following an equilibration period of an hour, the chicks were pretrained and trained essentially as described by Lossner and Rose (J. Neurochem. 41, 1357-1363 (1983), the contents of which are incorporated herein by reference). Pretraining involved three 10 s presentations of a small (2 mm diameter) white bead, at approximately 5 minute intervals. […] Two training techniques were used: “strong” and “weak” training. In both, 5 to 10 minutes after the last pre-training trial, chicks were trained by a 10 s presentation of a 4 mm diameter chrome bead, which had been dipped in the bitter-tasting methylanthranilate. Control chicks pecked at a water-coated or dry bead. In the “strong” version of the task, 100% methylanthranilate was used. In the “weak” version, 10% methylanthranilate was used. Chicks spontaneously pecked at the training or control beads within 20 s. Chicks that peck at the bitter bead evinced a disgust reaction and would not normally peck at a similar, but dry bead for some hours subsequently. […] Recall is calculated as a percent avoidance score (percentage of chicks which avoid the chrome bead) and as a discrimination score (percentage of chicks which avoid the chrome but peck at the white bead). […]

[5] = FIG. 10, 2 μg/hemisphere 20 mins prior to training after β-amyloid 12-28 (2 μg/hemisphere) 30 mins prior to training, measured 20 mins after administration
[6] = FIGS. 7-9, peptide 30 minutes pretraining, memory tested 24 hours posttraining
[7] = AS oligodeoxynucleotide 12 hours pretraining, peptide 30 minutes pretraining, strong learning task

**Q.** For `CC(=O)NC(CCCNC(=N)N)C(=O)NC(CCC(=O)O)C(=O)OC(CCCNC(=N)N)C(=O)O` (centres unmarked) [Ac-RER], which “effect on weak training (percent avoidance)” value (chicks [1]; FIG. 11, 2 μg/hemisphere 30 mins before training) is on record?
**A.** has the effect of improving the memory of weakly trained chicks

**Q.** And the “effect on weak training (percent avoidance)” value (chicks [1]; FIG. 11, 2 μg/hemisphere 60 mins before training)?
**A.** still significant, although less than 30 minutes after administration

**Q.** And the “effect of differing doses on weak training (percent avoidance)” value (chicks [1]; FIG. 12)?
**A.** have the effect of improving the memory of weakly-trained chicks

**Q.** And the “dose required to obtain a comparable effect on weak training” value (chicks [1]; FIG. 12, Ac-RER compared with RER)?
**A.** higher doses of Ac-RER than of RER

**Q.** What about the “stability after administration (indicated by FIG. 12 results)” value (chicks [1]; FIG. 12, inferred from the doses required) of the same molecule?
**A.** more stable after administration than RER

**Q.** What about the “effect on β-amyloid 12-28 induced amnesia (percent avoidance)” value (chicks [2]; [5]) of the same molecule?
**A.** less than that of RER

**Q.** And the “effect on β-amyloid 12-28 induced amnesia (percent avoidance)” value (chicks [2]; FIG. 10, 2 μg/hemisphere 20 mins prior to training after β-amyloid 12-28 (2 μg/hemisphere) 30 mins prior to training, measured 20 mins after administration, listed as AC-RER)?
**A.** have the effect of restoring memory

**Q.** What about the “stability after administration (indicated by FIG. 10 results)” value (chicks [2]; FIG. 10, inferred from memory-restorative effect compared with RER) of the same molecule?
**A.** more stable after administration

**Q.** What about the “effect on β-amyloid 12-28 induced amnesia (percent avoidance)” value (chicks [2]; FIG. 13, 4 μg/hemisphere 60, 20 or 30 mins prior to training (before, after or together with β-amyloid 12-28 2 μg/hemisphere)) of the same molecule?
**A.** has the effect of restoring memory

**Q.** Which “effect on APP-antisense induced amnesia (percent avoidance: total avoidance and discrimination)” value (chicks [3]; FIG. 6, AS oligodeoxynucleotide 12 hours pretraining, peptide 30 minutes pretraining, tested 30 minutes posttraining) does the source give for AKERLEAKHRERMSQVM [APP 319-335] here?
**A.** can prevent antisense induced memory loss

**Q.** And the “effect on weak training (percent avoidance)” value (chicks [1]; [6])?
**A.** enhance memory at 24 hours

**Q.** Arg-Glu-Arg-Met-Ser (RERMS) was tested. Which “effect on APP-antisense induced amnesia (percent avoidance)” value (chicks [3]; [7]) did it give?
**A.** avoided to a substantial extent

**Q.** What about the “effect on weak training (percent avoidance)” value (chicks [1]; [6]) of the same molecule?
**A.** enhance memory at 24 hours

**Q.** And the “effect on β-amyloid 12-28 induced amnesia (percent avoidance)” value (chicks [2]; FIG. 3, β-amyloid 12-28 30 minutes pretraining, peptide 20 minutes pretraining, memory tested 24 hours posttraining)?
**A.** memory retention is restored

**Q.** What about the “effect on anti-APP induced amnesia (percent avoidance)” value (chicks [4]) of the same molecule?
**A.** will prevent antibody induced memory loss

**Q.** For “AS oligodeoxynucleotide: 16-mer end-protected phosphodiester oligodeoxynucleotide 5′-CCC GAG GAC TGA GCC A-3′ (SEQ ID No: 21) against APP mRNA, antisense form (antisense CCCGAGGACTGAGCCA; end-protected phosphodiester DNA, nucleotides 2 and 13 modified, nature not given here) [reference compound]”, which “effect of oligodeoxynucleotide on memory (percent avoidance)” value (chicks [3]; FIG. 5a, 0.6 to 1.0 μg in 2 μl, 12 hours pretraining, strong learning task) is on record?
**A.** had a significant effect of memory loss

**Q.** How did the “effect on APP-antisense induced amnesia (percent avoidance)” value (chicks [3]; [7]) turn out when “Arg-Ser-Ala-Glu-Arg (RSAER) [reference compound]” was run?
**A.** absent

**Q.** Which results are given for Arg-Glu-Arg (RER)?
**A.** effect of differing doses on weak training (percent avoidance) (chicks [1]; FIG. 12): have the effect of improving the memory of weakly-trained chicks; effect on weak training (percent avoidance) (chicks [1]; [6]): enhances memory at 24 hours; effect on β-amyloid 12-28 induced amnesia (percent avoidance) (chicks [2]; [5]): have the effect of restoring memory

— US7622446B2, “Polypeptides, derivatives and uses thereof” (The Open University, priority 2001, dated 2009)
